Patent US20210032139A1, “REGULATING A MICROENVIRONMENT OF ANAEROBIC GRANULAR SLUDGE TO PROMOTE ANAEROBIC DIGESTION AND DELAY CALCIFICATION” (GuangXi University, priority 2019, published 2021)

Experiments:
[1] = tested on: anaerobic granular sludge; test: Laboratory anaerobic serum bottle reactor treating papermaking wastewater with daily C8-HSL addition; conditions: after three months; for Methanobactium, Methanosaeta and Methanosarcina in the microbial community: sequencing analysis
Protocol: First, 50 mL of anaerobic granular sludge and 200 mL of papermaking wastewater collected from a paper mill were placed in a 250 mL anaerobic serum bottle. The bioreactor used in this example involves a 24-hour operation cycle, which has a reaction stage (23.5 h) and a sludge settling stage (0.5 h).
Next, 50 mL of supernatant is removed from the top of the anaerobic serum bottle, and the same volume of fresh papermaking wastewater with N-octyl […] (C8-HSL) is injected into the bottle through a long syringe at the end of the cycle. The injected wastewater is then domesticated for about a week.
2 μg C8-HSL standards are added to the reactor every day after domestication.
The reactor is treated in a constant temperature magnetic stirring water bath at 38° C.
Water samples are collected at the beginning and end of each cycle from the reactor, and sludge samples are also collected at the end of each cycle from the reactor. After a total of three months of operation, sludge biomass is collected by centrifugation at 5000×g for 10 minutes and then frozen for further sequencing analysis. […]

[2] = tested on: anaerobic granular sludge; test: Paper mill anaerobic reactor (1500 m^3) with C8-HSL added to papermaking wastewater at the regulating tank outlet
Protocol: In an anaerobic reactor of a paper mill, the reactor is 8 m high and its working volume is 1500 m^3. The papermaking wastewater with high calcium content enters into a regulating tank. The regulating tank has a volume of 1000 m^3. When it is detected that the proportion of microorganism content in the anaerobic granular sludge in the anaerobic reactor is less than 0.6, C8-HSL standard of AHLs type signal molecule is added to the paper-making wastewater at the outlet of the regulating tank end, the quantity of C8-HSL standard is 50 mg per cubic meter of papermaking wastewater. The time interval of signal molecule input is controlled by time controller. The regulating pool is equipped with liquid level transmitter to detect the liquid level to prevent the reactor feed pump from idling. The wastewater that is modulated in the regulating tank is injected into the anaerobic reactor through the wastewater feed pump and treated according to the conventional anaerobic way. In the treatment process, water samples are collected once a month, and sludge samples are collected once half a year. Sludge biomass is collected by centrifugation at 5000×g for 10 minutes, and then frozen for further sequencing analysis.

[3] = 2 μg C8-HSL added every day, 38° C.
[4] = 20 μg C8-HSL added every day, 38° C.
[5] = 30 μg C8-HSL added every day (150 mg/m^3)
[6] = 30 μg C8-HSL added every day (150 mg/m^3), 38° C.
[7] = 50 mg C8-HSL per cubic meter of papermaking wastewater, paper mill, after five years

increase of activity of coenzyme F420 compared with the reactor without exogenous signal molecules ([1]; 2 μg C8-HSL added every day): 33.5% | content of coenzyme F420 [1, 3]: 0.18 μmol/gVSS | increase of activity of coenzyme F420 compared with the reactor without exogenous signal molecules ([1]; 20 μg C8-HSL added every day): 48.1% | content of coenzyme F420 [1, 4]: 0.20 μmol/gVSS | increase of activity of coenzyme F420 compared with the reactor of adding 100 mg signal molecule per cubic meter of papermaking wastewater [1, 5]: 1.5% | increase of activity of coenzyme F420 compared with the reactor without exogenous signal molecules [1, 5]: 50.38% | content of coenzyme F420 [1, 6]: 0.203 μmol/gVSS | content of coenzyme F420 [2, 7]: 0.19 μmol/gVSS
SMILES: CCCCCCCC(=O)N[C@H]1CCOC1=O [C8-HSL, N-octyl hypererine lactone]
increase of removal rate of COD compared with the reactor without exogenous signal molecules ([1]; 2 μg C8-HSL added every day): 10.8% | increase of specific methanogenic activity (SMA) compared with the reactor without exogenous signal molecules ([1]; 2 μg C8-HSL added every day): 32.4% | chemical oxygen demand (COD) removal rate [1, 3]: 75% | specific methanogenic activity (SMA) [1, 3]: 25 mL/(gVSS·h) | Methanobactium, Methanosaeta and Methanosarcina in the microbial community ([1]; 2 μg C8-HSL added every day): enhanced | increase of removal rate of COD compared with the reactor without exogenous signal molecules ([1]; 20 μg C8-HSL added every day): 18.2% | increase of specific methanogenic activity (SMA) compared with the reactor without exogenous signal molecules ([1]; 20 μg C8-HSL added every day): 43% | COD removal rate [1, 4]: 80% | specific methanogenic activity (SMA) [1, 4]: 27 mL/(gVSS·h) | Methanobactium, Methanosaeta and Methanosarcina in the microbial community ([1]; 20 μg C8-HSL added every day): enhanced | increase of removal rate of COD compared with the reactor of adding 100 mg signal molecule per cubic meter of papermaking wastewater [1, 5]: 0.375% | increase of removal rate of COD compared with the reactor without exogenous signal molecules [1, 5]: 18.63% | increase of specific methanogenic activity (SMA) compared with the reactor of adding 100 mg signal molecule per cubic meter of papermaking wastewater [1, 5]: 1.85% | increase of specific methanogenic activity (SMA) compared with the reactor without exogenous signal molecules [1, 5]: 45.66% | COD removal rate [1, 6]: 80.3% | specific methanogenic activity (SMA) [1, 6]: 27.5 mL/(gVSS·h) | Methanobactium, Methanosaeta and Methanosarcina in the microbial community [1, 5]: enhanced | COD removal rate [2, 7]: 75% | specific methanogenic activity (SMA) [2, 7]: 24 mL/(gVSS·h) | calcification of the sludge ([2]; 50 mg C8-HSL per cubic meter of papermaking wastewater, paper mill, after five years, without C8-HSL obvious calcification for up to two years): has not been calcified | Methanobactium, Methanosaeta and Methanosarcina in the microbial community ([2]; 50 mg C8-HSL per cubic meter of papermaking wastewater, paper mill, sequencing analysis): enhanced | effect on delaying calcification ([2]; paper mill reactor, compared with before signal molecule addition): obvious
